{"source": "paper PMC6091977", "about": "“The permeation mechanism of organic cations through a CNG mimic channel” (PLoS Computational Biology, 2018)", "key": {"[1]": {"molecular_target": "T1, CNGA1 channel (bovine CNGA1, bCNGA1) (Bos taurus, UniProt Q00194)", "T1 sequence (Q00194 1-690)": "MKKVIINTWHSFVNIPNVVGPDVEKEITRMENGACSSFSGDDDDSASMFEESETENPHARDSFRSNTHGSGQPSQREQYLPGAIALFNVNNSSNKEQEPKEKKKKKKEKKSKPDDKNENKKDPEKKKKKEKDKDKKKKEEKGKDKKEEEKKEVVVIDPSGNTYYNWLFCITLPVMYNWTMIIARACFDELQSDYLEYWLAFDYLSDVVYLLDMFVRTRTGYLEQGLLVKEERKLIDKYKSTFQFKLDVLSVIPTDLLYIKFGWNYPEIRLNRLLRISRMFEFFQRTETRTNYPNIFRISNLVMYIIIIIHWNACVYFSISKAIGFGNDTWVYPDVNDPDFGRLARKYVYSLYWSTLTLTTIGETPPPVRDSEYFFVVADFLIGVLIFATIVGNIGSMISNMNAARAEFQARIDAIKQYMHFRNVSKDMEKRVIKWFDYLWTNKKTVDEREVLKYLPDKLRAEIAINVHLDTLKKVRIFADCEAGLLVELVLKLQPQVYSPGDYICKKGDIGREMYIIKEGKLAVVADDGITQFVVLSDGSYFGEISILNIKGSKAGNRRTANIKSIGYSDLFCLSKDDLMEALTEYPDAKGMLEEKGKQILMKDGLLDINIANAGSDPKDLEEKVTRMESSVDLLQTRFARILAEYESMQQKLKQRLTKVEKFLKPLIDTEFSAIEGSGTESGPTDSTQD", "test": "excised-patch voltage clamp; current activation", "type": "biochemical", "parameters": "full-length CNGA1 expressed alone from cRNA in Xenopus laevis oocytes; excised patches", "settings": "agonist at 1 mM; DMA as charge carrier; pH 7.4"}, "[2]": {"molecular_target": "T1, CNGA1 channel (bovine CNGA1, bCNGA1)", "test": "cell-based"}, "NaK2CNG-E chimera": {"molecular_target": "NaK2CNG-E chimera", "test": "crystal structure; sitting drop vapor diffusion at 20°C, 40-44% MPD, 100 mM MES pH 6.5, 25 mM glycine; protein purified in DM with DMA·HCl; space group P222_(1); tetramers AABB and CCDD built by two-fold crystallographic symmetry"}}, "data": [{"compound": "Nc1nc2c(ncn2[C@@H]2O[C@@H]3COP(=O)(O)O[C@H]3[C@H]2O)c(=O)[nH]1", "note": "[cGMP]", "values": [{"measurement": "excised-patch voltage clamp; current activation", "setting": "[1]", "value": "The cGMP activated current was measured as the difference between the current recorded in the presence"}]}, {"compound": "CNC", "note": "[DMA, dimethylammonium]", "values": [{"measurement": "Kd", "setting": "[2]", "value": 52, "unit": "mM"}]}, {"compound": "NaK2CNG-E chimera", "values": [{"measurement": "stoichiometry N", "setting": "NaK2CNG-E chimera", "value": 4}]}]}
